# Assays:
# [1] = system: collagen induced arthritis (CIA); test: Rat Collagen Induced Arthritis (CIA) Model, hind paw inflammation score; type: in vivo
# Source text: Holmdahl R, Lorentzen J C, Lu S, Olofsson P, Wester L, Holmberg J, et al. Arthritis in rats with non-immunogenic adjuvants as models for rheumatoid arthritis. […] On day 10, the rats were boosted with a second subcutaneous injection. Test article administration was initiated when at least one hind paw was inflamed (clinical arthritis score=1) and enrollment into a treatment group was designated as day 1 of the study for each individual animal (n=4 to 8/dose group). Progression of disease was evidenced by increased edema and erythema of one or both ankle joints, followed by the involvement of the metatarsal and interphalangeal joints. […] Hind paws were scored daily (inflammation score) for progression of disease and evaluated for histopathological changes in cartilage structure, cellularity, matrix glycoaminoglycans, and synovial inflammation at the end of the 16-day treatment course. […] In Tables below, mean scores are calculated for all animals in dosed group over the entire experimental time course.
# pAKT = test: BCR-induced pAKT formation in NHL cell lines; type: cell-based; settings: Homo sapiens, Ramos
# SU-DHL6 [2] = test: Induction of apoptosis, caspase 3 cleavage; type: cell-based
# SU-DHL4 [3] = test: Induction of apoptosis, Annexin V binding; type: cell-based
# SU-DHL4 [4] = test: Induction of apoptosis, caspase 3 cleavage; type: cell-based
# Syk (Y525/526) = test: BCR-induced Syk (Y525/526) autophosphorylation in NHL cell lines; type: cell-based; settings: Homo sapiens, SU-DHL-4; SU-DHL4; read-out: BCR-induced Syk (Y525/526) auto-phosphorylation (IC50)
# SU-DHL6 [5] = test: Induction of apoptosis, Annexin V binding; type: cell-based
# CD69 [6] = test: Whole blood B cell activation (CD69) in RA patients with or without MTX; type: cell-based, human; settings: blood from RA patients on stable doses of MTX (n=18) versus without MTX (n=14); anti IgD activation
# Source text: In vitro study of whole blood B cell activation (CD69) in stable RA patients treated with MTX (n=18) or without MTX (n=14).
# pERK [7] = test: B cell activity in human whole blood: BCR-induced pERK formation; type: cell-based; settings: healthy normal volunteers, ex vivo
# [8] = Lymphocyte counts in rats with bovine collagen antibody mediated inflammation; type: in vivo, rat; settings: administered as a single agent
# Source text: In 7 control rats treated with vehicle, lymphocyte count was […]. In 4 rats treated with dexamethasone, count=2.32×10^3/μL, p=0.42. However 3 out of 4 of rats did suffer from lymphopenia.
# DHL4 = test: Viability of DLBCL cell line DHL4 by luminescent ATP detection (Cell Titer Glo); type: cell-based; settings: single agents; three days; ATP luminescence
# Procedure: The final concentration of solvent (DMSO) during experimental time course was 1%. The robotic system Biomek 2 was used for all pipetting steps. After three days at 37 degrees in a tissue culture incubator, viability of cells was determined by lysis and luminescent ATP detection. ATP detection was carried out by addition of 20 μL Cell Titer Glo (Promega) following the protocol provided by manufacturer.
# The concentrations of the inhibitors required to obtain 50, 75 or 90 percent inhibition are plotted in an isobologram (Tallarida R J. Dose response relations in pharmacology, Chapman and Hall/CRC, 2000).
# pBLNK = test: BCR-induced pBLNK formation in NHL cell lines; type: cell-based; settings: Homo sapiens
# pERK [9] = test: BCR-induced pERK formation in NHL cell lines; type: cell-based; settings: Homo sapiens
# CD69 [10] = test: B cell activity in human whole blood: BCR-induced CD69 expression; type: cell-based; settings: healthy normal volunteers, ex vivo
# leukocytes = test: Leukocyte rolling and adhesion in whole blood on collagen type 1 + JAM-C surface; type: cell-based, human; settings: for percentage increase in fluorescence intensity over baseline: Compound 1 3 uM
# Source text: Junction adhesion molecule C (JAM-C) mediates recruitment and adhesion of leukocytes to synovium of patients with rheumatoid arthritis (Rabquer B J, Arthritis Rheum, 2008; 58(10):3020-9). This is an important step in the etiology of rheumatoid arthritis and disruption of this activity may have therapeutic benefit in the treatment of patients with inflammatory diseases such as RA. In order to use an in-vitro experimental system to mimic migration and adhesion of leukocytes, we have used a collagen and JAM-C coated surface for the assay.
# Leukocyte rolling and adhesion in human whole blood (from healthy normal volunteers or patients with rheumatoid arthritis) was monitored using real time fluorescence microscopy. […] Prior to experimentation, leukocytes were labeled in whole blood with Rhodamine 6G to permit visualization by fluorescence microscopy. The increase in fluorescence intensity is proportional to the amount of fluorescently labeled leukocytes recruited under the area of observation. […] For quantitation of inhibitory activity (TABLE), data are presented as percentage increase in fluorescence intensity over baseline 180 and 360 sec post initiation of the blood perfusion (see FIG. 4).
# [11] = Compound 1 5 mg/kg, first experimental design (5/15/50 mg/kg)
# [12] = Compound 1 5 mg/kg, second experimental design (5/10/15 mg/kg)
# [13] = Compound 1 10 mg/kg, second experimental design (5/10/15 mg/kg)
# [14] = Compound 1 15 mg/kg, first experimental design (5/15/50 mg/kg)
# [15] = Compound 1 15 mg/kg, second experimental design (5/10/15 mg/kg)
# [16] = Compound 1 50 mg/kg, first experimental design (5/15/50 mg/kg)
smiles,measurement,setting,value
"NC(=O)c1cnc(N[C@@H]2CCCC[C@@H]2N)nc1Nc1cccc(-n2nccn2)c1 [Compound 1, 4-(3-(2H-1,2,3-triazol-2-yl)phenylamino)-2-((1R,2S)-2-aminocyclohexylamino)pyrimidine-5-carboxamide]",Maximum Inflammation Score measurement,[1]; [11],5.625
same,Mean Inflammation Score,[1]; [11],4.868
same,Minimum Inflammation Score measurement,[1]; [11],1.5
same,Maximum Inflammation Score measurement,[1]; [12],4.75
same,Mean Inflammation Score,[1]; [12],3.57
same,Minimum Inflammation Score measurement,[1]; [12],1.38
same,Maximum Inflammation Score measurement,[1]; [13],3.00
same,Mean Inflammation Score,[1]; [13],2.15
same,Minimum Inflammation Score measurement,[1]; [13],1.13
same,Maximum Inflammation Score measurement,[1]; [14],1.125
same,Mean Inflammation Score,[1]; [14],0.949
same,Minimum Inflammation Score measurement,[1]; [14],0.75
same,Maximum Inflammation Score measurement,[1]; [15],1.38
same,Mean Inflammation Score,[1]; [15],1.016
same,Minimum Inflammation Score measurement,[1]; [15],0.63
same,Maximum Inflammation Score measurement,[1]; [16],1.0
same,Mean Inflammation Score,[1]; [16],0.169
same,Minimum Inflammation Score measurement,[1]; [16],0
same,IC50,pAKT,0.05 to 0.125 µM
same,Induction of apoptosis— caspase 3 cleavage (% +ve cells),SU-DHL6 [2],47 % +ve cells
same,Induction of apoptosis— Annexin V binding (% +ve cells),SU-DHL4 [3],15.5 % +ve cells
same,Induction of apoptosis— caspase 3 cleavage (% +ve cells),SU-DHL4 [4],26 % +ve cells
same,Induction of apoptosis— Annexin V binding (% +ve cells),SU-DHL6 [5],20.3 % +ve cells
same,Syk inhibitory potency in whole blood B cell activation (CD69),CD69 [6],higher (reduced IC50)
same,IC50,pERK [7],250 to 500 nM
same,effect on lymphocyte counts,[8],does not produce a reduction in lymphocyte counts
same,inhibitory activity on viability of DHL4 cells (in words),DHL4,dose responsive inhibitory activity
same,IC50,"pBLNK; SU-DHL-4, SU-DHL4",160 nM
same,IC50,"pBLNK; SU-DHL-6, SU-DHL6",10 to 20 nM
same,IC50,pERK [9]; Ramos,0.05 to 0.125 µM
same,IC50,"pERK [9]; SU-DHL-6, SU-DHL6",0.1 µM
same,IC50,CD69 [10],250 to 500 nM
same,percentage increase in fluorescence intensity over baseline,"leukocytes; RA patient #8 on Adalimumab, 180 sec, vehicle 51%",7%
same,percentage increase in fluorescence intensity over baseline,"leukocytes; RA patient #8 on Adalimumab, 360 sec, vehicle 94%",63%
same,percentage increase in fluorescence intensity over baseline,"leukocytes; RA patient #10 on Methotrexate, 180 sec, vehicle 44%",29%
same,percentage increase in fluorescence intensity over baseline,"leukocytes; RA patient #10 on Methotrexate, 360 sec, vehicle 107%",86%
same,percentage increase in fluorescence intensity over baseline,"leukocytes; RA patient #11 on Methotrexate + prednisone, 180 sec, vehicle 165%",69%
same,percentage increase in fluorescence intensity over baseline,"leukocytes; RA patient #11 on Methotrexate + prednisone, 360 sec, vehicle 178%",183%
same,percentage increase in fluorescence intensity over baseline,"leukocytes; RA patient #12 on Etanercept, 180 sec, vehicle 61%",17%
same,percentage increase in fluorescence intensity over baseline,"leukocytes; RA patient #12 on Etanercept, 360 sec, vehicle 131%",53%
same,number of adherent leukocytes (in words),"leukocytes; whole blood from RA patients (mild, moderate, severe) on standard of care, in vitro addition of 3 uM",reduces the number of adherent cells
same,number of leukocytes adhering to collagen and JAM-C coated surface (in words),leukocytes; whole blood from healthy donors without inflammatory disease,reduces the number of leukocytes adhering

# Source: patent US20130244963A1 (Portola Pharmaceuticals, Inc., priority 2010, published 2013)
